{"source": "paper PMC2639596", "about": "“Antimicrobial peptides effectively kill a broad spectrum of Listeria monocytogenes and Staphylococcus aureus strains independently of origin, sub-type, or virulence factor expression” (BMC Microbiology, 2008)", "key": {"Staphylococcus aureus": {"tested_on": "Staphylococcus aureus", "conditions": "for MIC (MEC): radial diffusion, MHB/1% agarose, overnight, 37°C", "experimental": "(§1) The MEC of HBD-3 was assayed on a sub-selection of strains using a radial diffusion assay with some modifications. In brief, MHB/1% agarose was supplemented with glucose to an end-concentration of 0.1% (w/V) to enhance the growth of L. monocytogenes and improve the visualization of the inhibition zones. […] Following solidification on a leveling table, 1 mm wells were punched with a Pasteur pipette. Two-fold dilutions of HBD-3 were prepared in 0.01% acetic acid/0.1% bovine serum albumin to a concentration range of 0.25–256 μg/ml and 2 μl was added to each well. […] Each strain was tested in two independent trials.\n(§2) The bacteria were prepared and mixed with MHB/1% agarose as described above and 50 ml gel was poured into 140 mm Petri dishes. The gel was allowed to solidify and 3 mm wells were punched. […] The plates were incubated overnight at 37°C and the MEC was read as described above."}, "Listeria monocytogenes": {"tested_on": "Listeria monocytogenes", "conditions": "for MIC (MEC): radial diffusion, MHB/1% agarose, overnight, 37°C", "experimental": "as §1, §2"}}, "note": "Where two headings read alike, the source gives them in different places."}
{"smiles": "OO", "note": "[hydrogen peroxide]", "values": [{"measurement": "MEC values against S. aureus (range over strains)", "setting": "Staphylococcus aureus", "result": "0.12–0.47 % (V/V)"}, {"measurement": "MIC (MEC)", "setting": "Staphylococcus aureus; strain ΔdltA (Sa113 dltA ins)", "result": "0.23 % (V/V)"}, {"measurement": "MIC (MEC)", "setting": "Staphylococcus aureus; strain ΔmprF (Sa113 mprF del)", "result": "0.12 % (V/V)"}, {"measurement": "MEC values against L. monocytogenes (range over strains)", "setting": "Listeria monocytogenes; radial diffusion assay, all strains tested", "result": "0.12–0.94 % (V/V)"}, {"measurement": "MIC (MEC)", "setting": "Listeria monocytogenes; strain 2275 (EGD dps del)", "result": "0.94 % (V/V)"}, {"measurement": "MIC (MEC)", "setting": "Listeria monocytogenes; strain 2307 (EGD resD del)", "result": "0.12 % (V/V)"}, {"measurement": "MIC (MEC)", "setting": "Listeria monocytogenes; strain 2315 (EGD sigB del)", "result": "0.94 % (V/V)"}, {"measurement": "MIC (MEC)", "setting": "Listeria monocytogenes; strain 2317 (EGD prfA del)", "result": "0.94 % (V/V)"}, {"measurement": "MIC (MEC)", "setting": "Listeria monocytogenes; strain 2374 (EGD perR ins)", "result": "0.94 % (V/V)"}, {"measurement": "MIC (MEC)", "setting": "Listeria monocytogenes; strain 2375 (EGD perR del)", "result": "0.94 % (V/V)"}, {"measurement": "MIC (MEC)", "setting": "Listeria monocytogenes; strain 4239", "result": "0.23 % (V/V)"}, {"measurement": "MIC (MEC)", "setting": "Listeria monocytogenes; strain 4446", "result": "0.47 % (V/V)"}, {"measurement": "MIC (MEC)", "setting": "Listeria monocytogenes; strain 4459", "result": "0.23 % (V/V)"}, {"measurement": "MIC (MEC)", "setting": "Listeria monocytogenes; strain 4666", "result": "0.18 % (V/V)"}, {"measurement": "MIC (MEC)", "setting": "Listeria monocytogenes; strain 6895", "result": "0.35 % (V/V)"}, {"measurement": "MIC (MEC)", "setting": "Listeria monocytogenes; strain 7291", "result": "0.47 % (V/V)"}, {"measurement": "MIC (MEC)", "setting": "Listeria monocytogenes; strain 7418", "result": "0.18 % (V/V)"}, {"measurement": "MIC (MEC)", "setting": "Listeria monocytogenes; strain EGD (wildtype)", "result": "0.47 % (V/V)"}, {"measurement": "MIC (MEC)", "setting": "Listeria monocytogenes; strain H13-1", "result": "0.94 % (V/V)"}, {"measurement": "MIC (MEC)", "setting": "Listeria monocytogenes; strain LO28 (wildtype)", "result": "0.47 % (V/V)"}, {"measurement": "MIC (MEC)", "setting": "Listeria monocytogenes; strain La22", "result": "0.23 % (V/V)"}, {"measurement": "MIC (MEC)", "setting": "Listeria monocytogenes; strain La111", "result": "0.94 % (V/V)"}, {"measurement": "MIC (MEC)", "setting": "Listeria monocytogenes; strain M103-1", "result": "0.94 % (V/V)"}, {"measurement": "MIC (MEC)", "setting": "Listeria monocytogenes; strain N53-1", "result": "0.47 % (V/V)"}, {"measurement": "MIC (MEC)", "setting": "Listeria monocytogenes; strain No40-1", "result": "0.47 % (V/V)"}, {"measurement": "MIC (MEC)", "setting": "Listeria monocytogenes; strain O57", "result": "0.47 % (V/V)"}, {"measurement": "MIC (MEC)", "setting": "Listeria monocytogenes; strain R479a", "result": "0.47 % (V/V)"}, {"measurement": "MIC (MEC)", "setting": "Listeria monocytogenes; strain V518a", "result": "0.94 % (V/V)"}]}
